Measurements as given in ChEMBL document CHEMBL1201862, “PubChem BioAssay data set” (2004).
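Interpolation was linear, between the two tested concentrations surrounding the appropriate level; five concentrations were tested over 48 hours in 96-well plates. Abbreviation: GI50, concentration required for 50% inhibition of growth.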 Active and inactive are the calls of the source. Cut-off read from the data, not from the text of the source: active = GI50 up to about 1.1 µM and inactive = higher.

What was measured:
Test in all cases: DTP human tumour cell line panel, 48 h
Malme-3M = system: Malme-3M
OVCAR-3 = system: OVCAR-3
ACHN = system: ACHN
786-0 = system: 786-0
NCI-H460 = system: NCI-H460
SF-268 = system: SF-268
SK-MEL-5 = system: SK-MEL-5
NCI-H522 = system: NCI-H522
OVCAR-8 = system: OVCAR-8
DU-145 = system: DU-145
MDA-MB-435 = system: MDA-MB-435
HCT-15 = system: HCT-15
TK-10 = system: TK-10
SK-MEL-2 = system: SK-MEL-2
A498 = system: A498
SR = system: SR
NCI/ADR-RES = system: NCI/ADR-RES
RXF 393 = system: RXF 393
IGROV-1 = system: IGROV-1
SW-620 = system: SW-620
KM12 = system: KM12
COLO 205 = system: COLO 205
MDA-N = system: MDA-N
T47D = system: T47D
UO-31 = system: UO-31
NCI-H226 = system: NCI-H226
K562 = system: K562
OVCAR-5 = system: OVCAR-5
HOP-62 = system: HOP-62
SK-OV-3 = system: SK-OV-3
PC-3 = system: PC-3
CAKI-1 = system: CAKI-1
HOP-92 = system: HOP-92
U-251 = system: U-251
HCC 2998 = system: HCC 2998
OVCAR-4 = system: OVCAR-4
BT-549 = system: BT-549
UACC-62 = system: UACC-62
HT-29 = system: HT-29
UACC-257 = system: UACC-257
HCT-116 = system: HCT-116
MCF7 = system: MCF7
SF-539 = system: SF-539
RPMI-8226 = system: RPMI-8226
SK-MEL-28 = system: SK-MEL-28
NCI-H23 = system: NCI-H23
SF-295 = system: SF-295
A549 = system: A549
SN12C = system: SN12C
SNB-75 = system: SNB-75
M14 = system: M14
MDA-MB-231 = system: MDA-MB-231
MOLT-4 = system: MOLT-4
CCRF-CEM = system: CCRF-CEM
HL-60 = system: HL-60
SNB-19 = system: SNB-19
EKVX = system: EKVX
LOX IMVI = system: LOX IMVI

Structure (SMILES): FC(F)(Sc1ncccn1)c1nc2ccccc2o1
- GI50 (Malme-3M): > 100 µM (inactive)
- GI50 (OVCAR-3): > 100 µM (inactive)
- GI50 (ACHN): > 100 µM (inactive)
- GI50 (786-0): > 100 µM (inactive)
- GI50 (NCI-H460): > 100 µM (inactive)
- GI50 (SF-268): > 100 µM (inactive)
- GI50 (SK-MEL-5): > 100 µM (inactive)
- GI50 (NCI-H522): > 100 µM (inactive)
- GI50 (OVCAR-8): > 100 µM (inactive)
- GI50 (DU-145): > 100 µM (inactive)
- GI50 (MDA-MB-435): 99.1 µM (inactive)
- GI50 (HCT-15): > 100 µM
- GI50 (TK-10): > 100 µM (inactive)
- GI50 (SK-MEL-2): > 100 µM (inactive)
- GI50 (A498): > 100 µM (inactive)
- GI50 (SR): 37.8 µM (inactive)
- GI50 (NCI/ADR-RES): > 100 µM (inactive)
- GI50 (RXF 393): 79.3 µM (inactive)
- GI50 (IGROV-1): > 100 µM (inactive)
- GI50 (SW-620): > 100 µM (inactive)
- GI50 (KM12): > 100 µM (inactive)
- GI50 (COLO 205): > 100 µM (inactive)
- GI50 (MDA-N): > 100 µM (inactive)
- GI50 (T47D): > 100 µM (inactive)
- GI50 (UO-31): 99.3 µM (inactive)
- GI50 (NCI-H226): > 100 µM (inactive)
- GI50 (K562): 77.4 µM (inactive)
- GI50 (OVCAR-5): > 100 µM (inactive)
- GI50 (HOP-62): > 100 µM (inactive)
- GI50 (SK-OV-3): > 100 µM (inactive)
- GI50 (PC-3): 89.1 µM (inactive)
- GI50 (CAKI-1): > 100 µM (inactive)
- GI50 (HOP-92): 56.8 µM (inactive)
- GI50 (U-251): 55.5 µM (inactive)
- GI50 (HCC 2998): > 100 µM (inactive)
- GI50 (OVCAR-4): > 100 µM (inactive)
- GI50 (BT-549): > 100 µM (inactive)
- GI50 (UACC-62): > 100 µM (inactive)
- GI50 (HT-29): > 100 µM (inactive)
- GI50 (UACC-257): > 100 µM (inactive)
- GI50 (HCT-116): 84.3 µM (inactive)
- GI50 (MCF7): > 100 µM (inactive)
- GI50 (SF-539): > 100 µM (inactive)
- GI50 (RPMI-8226): > 100 µM (inactive)
- GI50 (SK-MEL-28): > 100 µM (inactive)
- GI50 (NCI-H23): > 100 µM (inactive)
- GI50 (SF-295): > 100 µM (inactive)
- GI50 (A549): > 100 µM (inactive)
- GI50 (SN12C): > 100 µM (inactive)
- GI50 (SNB-75): 22 µM (inactive)
- GI50 (M14): > 100 µM (inactive)
- GI50 (MDA-MB-231): > 100 µM (inactive)
- GI50 (MOLT-4): 57.3 µM (inactive)
- GI50 (CCRF-CEM): 33.5 µM (inactive)

Structure (SMILES): Cc1cc(C2CC(O)C(CO)O2)c(F)cc1F (centres undefined)
- GI50 (Malme-3M): > 100 µM (inactive)
- GI50 (OVCAR-3): > 100 µM (inactive)
- GI50 (ACHN): > 100 µM (inactive)
- GI50 (786-0): > 100 µM (inactive)
- GI50 (NCI-H460): > 100 µM (inactive)
- GI50 (SF-268): > 100 µM (inactive)
- GI50 (NCI-H522): > 100 µM (inactive)
- GI50 (OVCAR-8): > 100 µM (inactive)
- GI50 (HL-60): 91.6 µM (inactive)
- GI50 (DU-145): > 100 µM (inactive)
- GI50 (MDA-MB-435): > 100 µM (inactive)
- GI50 (HCT-15): > 100 µM
- GI50 (TK-10): > 100 µM (inactive)
- GI50 (A498): > 100 µM (inactive)
- GI50 (SR): > 100 µM (inactive)
- GI50 (NCI/ADR-RES): > 100 µM (inactive)
- GI50 (SNB-19): > 100 µM (inactive)
- GI50 (RXF 393): > 100 µM (inactive)
- GI50 (IGROV-1): > 100 µM (inactive)
- GI50 (SW-620): > 100 µM (inactive)
- GI50 (KM12): > 100 µM (inactive)
- GI50 (COLO 205): > 100 µM (inactive)
- GI50 (EKVX): > 100 µM (inactive)
- GI50 (MDA-N): > 100 µM (inactive)
- GI50 (T47D): > 100 µM (inactive)
- GI50 (UO-31): > 100 µM (inactive)
- GI50 (NCI-H226): > 100 µM (inactive)
- GI50 (K562): > 100 µM (inactive)
- GI50 (OVCAR-5): > 100 µM (inactive)
- GI50 (HOP-62): > 100 µM (inactive)
- GI50 (SK-OV-3): > 100 µM (inactive)
- GI50 (PC-3): > 100 µM (inactive)
- GI50 (CAKI-1): > 100 µM (inactive)
- GI50 (HOP-92): > 100 µM (inactive)
- GI50 (U-251): > 100 µM (inactive)
- GI50 (HCC 2998): > 100 µM (inactive)
- GI50 (OVCAR-4): > 100 µM (inactive)
- GI50 (BT-549): > 100 µM (inactive)
- GI50 (UACC-62): > 100 µM (inactive)
- GI50 (HT-29): > 100 µM (inactive)
- GI50 (UACC-257): > 100 µM (inactive)
- GI50 (HCT-116): > 100 µM (inactive)
- GI50 (MCF7): > 100 µM (inactive)
- GI50 (SF-539): > 100 µM (inactive)
- GI50 (SK-MEL-28): > 100 µM (inactive)
- GI50 (NCI-H23): > 100 µM (inactive)
- GI50 (SF-295): > 100 µM (inactive)
- GI50 (A549): > 100 µM (inactive)
- GI50 (SN12C): > 100 µM (inactive)
- GI50 (SNB-75): > 100 µM (inactive)
- GI50 (M14): > 100 µM (inactive)
- GI50 (MDA-MB-231): > 100 µM (inactive)
- GI50 (MOLT-4): > 100 µM (inactive)
- GI50 (LOX IMVI): > 100 µM (inactive)
- GI50 (CCRF-CEM): > 100 µM (inactive)
